The text below walks through data of US10322999B2, “Oxindoles derivatives, preparation method thereof and pharmaceutical compositions for the prevention or treatment of cancer containing the same as an active ingredient” (RESEARCH & BUSINESS FOUNDATION SUNGKYUNKWAN UNIVERSITY, priority 2017, dated 2019).

Like-named read-outs stand apart in the source and are kept apart here. Where only a bound is given, the exact number is not on record here.

What all share (format): cell-based
For test [1], the system named is human breast cancer cell line (MCF-7). The test is described as follows: MTT assay, growth inhibition of MCF-7 cells. The procedure: (§1) To evaluate the anticancer activity of the oxindole derivatives produced and analyzed in examples 1 to 8, MTT assay was performed to confirm the growth inhibitory effect on cancer cells. More specifically, human prostate adenocarcinoma cell line (LNCaP), human breast cancer cell line (MCF-7), human ovarian cancer cell line (SKOV3), human lung cancer cell line […] and human renal adenocarcinoma cell line (786-O) were cultured in DMEM medium supplemented with 1% penicillin/streptomycin and 10% fetal bovine serum (All from Life Technologies, Grand Island, N.Y.). Cells were seeded in 96-well plates (3×10^3 cells/well) containing 100 μL of growth medium for 24 hours. After the medium was removed, 100 μL of each of the different analogues (dissolved in DMSO to 0.025% or less) was added to each well and cultured at 37° C. for 48 hours. After 48 hours of incubation, 100 μL of MTT reagent was added to each well. After incubation at 37° C. for 4 hours, the supernatant was aspirated, and the formazan crystals were dissolved in 100 μL of DMSO at 37° C. for 10 minutes with gentle stirring. Absorbance per well was measured at 540 nm using a VERSA max microplate reader (Molecular Devices Corp.). IC50 values were defined as compound concentrations that inhibited cell proliferation by 50% compared to cells treated with the highest amount of DMSO (0.025%) and were considered to be 100% viability.
On the technique in general: Tetrazolium dyes change colour on reduction, which living cells bring about.

The subject of test [2] is human renal adenocarcinoma cell line (786-O). The test is described as follows: MTT assay, growth inhibition of 786-O cells. To be noted: for IC50: Homo sapiens; for inhibitory activity in 786-O (in words): summary of Table 3, 786-O. As for the experimental part: as §1
Test [3] concerns human ovarian cancer cell line (SKOV3). The test is described as follows: MTT assay, growth inhibition of SKOV3 cells. As for the experimental part:
as §1

The subject of test [4] is human lung cancer cell line (A459). Put plainly: MTT assay, growth inhibition of A549 cells. To be noted: for IC50: Homo sapiens. The procedure: as §1
Test [5] deals with human prostate adenocarcinoma cell line (LNCaP). The test is described as follows: MTT assay, growth inhibition of LNCaP cells. To be noted: for IC50: Homo sapiens, LNCaP; for inhibitory activity in LNCaP (in words): summary of Table 3, LNCaP. The procedure: as §1
Where [6] appears, read: MCF7, MTT, 48 hours incubation, MCF-7, read-out: MCF-7 (IC50).
[7] abbreviates: 786-0, MTT, 48 hours incubation, 786-O, read-out: 786-O (IC50).
The mark [8] stands for this setting: SK-OV-3, MTT, 48 hours incubation, SKOV3, read-out: SKOV3 (IC50).
The mark [9] stands for this setting: MTT, 48 hours incubation, A549, read-out: A549 (IC50).
The mark [10] stands for this setting: MTT, 48 hours incubation, read-out: LNCaP (IC50).

As usually defined, the IC50 is the midpoint of a concentration-inhibition curve. In the case of `CCc1ccccc1NN1C(=O)C(CC(=O)OC)c2cccc(CC)c21` (stereo not drawn) [6a, Methyl 2-(7-ethyl-1-((2-ethylphenyl)amino)-2-oxoindolin-3-yl)acetate], the half-inhibitory concentration (IC50) in test [1] (setting [6]), in test [2] (setting [7]), in test [3] (setting [8]), in test [4] (setting [9]) and in test [5] (setting [10]) was greater than 50 µM in each case.

Take `CCc1ccccc1NN1C(=O)C(CC(=O)N[C@@H](C)C(=O)OC)c2cccc(CC)c21` (stereo partly drawn) [4j, Methyl (2-(7-ethyl-1-((2-ethylphenyl)amino)-2-oxoindolin-3-yl)acetyl)-L-alaninate]: the half-maximal inhibitory concentration (IC50) in test [1] (MCF7, 48 h, read-out: MCF-7 (IC50, μM)) is greater than 50 µM; in test [2] (786-0, 48 h, read-out: 786-O (IC50, μM)), greater than 50 µM; in test [3] (SK-OV-3, 48 h, read-out: SKOV3 (IC50, μM)) it was greater than 50 µM; in test [4] (48 h, read-out: A549 (IC50, μM)), greater than 50 µM; in test [5] (48 h, read-out: LNCaP (IC50, μM)), greater than 50 µM.

For the molecule `CNC(=O)CC1C(=O)N(Nc2ccc(Cl)cc2C)c2c(C)cc(Cl)cc21` (stereo not drawn) [3i, 2-(5-Chloro-1-((4-chloro-2-methylphenyl)amino)-7-methyl-2-oxoindolin-3-yl)-N-methylacetamide], the IC50 in test [1] (setting [6]) is greater than 50 µM; in test [2] (setting [7]) it was 29.5 µM; in test [3] (setting [8]), 44.5 µM; in test [4] (setting [9]), greater than 50 µM; in test [5] (setting [10]) it was 30.2 µM. In addition, in test [2], the “inhibitory activity in 786-O (in words)” value was “excellent inhibitor activity”. In addition, the “inhibitory activity in LNCaP (in words)” value in test [5] is “excellent inhibitor activity”.

`CNC(=O)CC1C(=O)N(Nc2ccccc2)c2ccccc21` (stereo not drawn) [3m, N-methyl-2-(2-oxo-1-(phenylamino)indolin-3-yl)acetamide]: the IC50 in test [1] (setting [6]), in test [2] (setting [7]), in test [3] (setting [8]), in test [4] (setting [9]) and in test [5] (setting [10]) was greater than 50 µM in each case.

Turning to `CNC(=O)CC1C(=O)N(Nc2cc(Br)ccc2C)c2c(C)ccc(Br)c21` (stereo not drawn) [3l, 2-(4-Bromo-1-((5-bromo-2-methylphenyl)amino)-7-methyl-2-oxoindolin-3-yl)-N-methylacetamide], the IC50 is greater than 50 µM in test [1] (setting [6]); 42.7 µM in test [2] (setting [7]); greater than 50 µM in test [3] (setting [8]); greater than 50 µM in test [4] (setting [9]); 42.4 µM in test [5] (setting [10]).

On to `CNC(=O)CC1C(=O)N(Nc2ccc(C)cc2)c2ccc(C)cc21` (stereo not drawn) [3n, N-Methyl-2-(5-methyl-2-oxo-1-(p-tolylamino)indolin-3-yl)acetamide], for which the IC50 in test [1] (setting [6]), in test [2] (setting [7]), in test [3] (setting [8]), in test [4] (setting [9]) and in test [5] (setting [10]) was greater than 50 µM each time.

As to `CNC(=O)CC1C(=O)N(Nc2ccc(F)cc2C)c2c(C)cc(F)cc21` (stereo not drawn) [3h, 2-(5-Fluoro-1-((4-fluoro-2-methylphenyl)amino)-7-methyl-2-oxoindolin-3-yl)-N-methylacetamide], the half-maximal inhibitory concentration (IC50) was greater than 50 µM in test [1] (setting [6]); 41.3 µM in test [2] (setting [7]); greater than 50 µM in test [3] (setting [8]); greater than 50 µM in test [4] (setting [9]); 42.9 µM in test [5] (setting [10]).

Regarding `CNC(=O)CC1C(=O)N(Nc2ccc(C)cc2C)c2c(C)cc(C)cc21` (stereo not drawn) [3g, 2-(1-((2,4-dimethylphenyl)amino)-5,7-dimethyl-2-oxoindolin-3-yl)-N-methylacetamide], the half-inhibitory concentration (IC50) in test [1] (setting [6]), in test [2] (setting [7]), in test [3] (setting [8]), in test [4] (setting [9]) and in test [5] (setting [10]) was greater than 50 µM throughout.

As for `CCc1ccccc1NN1C(=O)C(CC(=O)OC(C)C)c2cccc(CC)c21` (stereo not drawn) [6c, Isopropyl 2-(7-ethyl-1-((2-ethylphenyl)amino)-2-oxoindolin-3-yl)acetate], the IC50 in test [1] (setting [6]) was 45.5 µM; in test [2] (setting [7]) it was 30.5 µM; in test [3] (setting [8]), greater than 50 µM; in test [4] (setting [9]) it was greater than 50 µM; in test [5] (setting [10]), 14.5 µM. Further, in test [5], the “inhibitory activity in LNCaP (in words)” value is reported as “excellent activity”.

For the molecule `CCNC(=O)CC1C(=O)N(Nc2ccccc2CC)c2c(CC)cccc21` (stereo not drawn) [4b, N-Ethyl-2-(7-ethyl-1-((2-ethylphenyl)amino)-2-oxoindolin-3-yl)acetamide], the half-inhibitory concentration (IC50) in test [1] (setting [6]) is greater than 50 µM; in test [2] (setting [7]), greater than 50 µM; in test [3] (setting [8]), greater than 50 µM; in test [4] (setting [9]) it was greater than 50 µM; in test [5] (setting [10]) it was 32.2 µM. Moreover, the “inhibitory activity in 786-O (in words)” value in test [2] is “excellent activity”. Also, the “inhibitory activity in A549 (in words)” value in test [4] (summary of Table 3, A549) was “excellent activity”. In addition, in test [5], the “inhibitory activity in LNCaP (in words)” value is “excellent activity”.

Turning to `CCc1ccccc1NN1C(=O)C(CC(=O)NC2CCCCC2)c2cccc(CC)c21` (stereo not drawn) [4d, N-Cyclohexyl-2-(7-ethyl-1-((2-ethylphenyl)amino)-2-oxoindolin-3-yl)acetamide], the IC50 in test [1] (setting [6]) was 40.4 µM; in test [2] (setting [7]) it was 33.1 µM; in test [3] (setting [8]), greater than 50 µM; in test [4] (setting [9]) it was greater than 38.6 µM; in test [5] (setting [10]) it was 33 µM.

For `CCc1cccc2c1NC(=O)C2CC(=O)OC(C)C` (stereo not drawn) [8b, Isopropyl 2-(7-ethyl-2-oxoindolin-3-yl)acetate], the IC50 in test [1] (setting [6]), in test [2] (setting [7]), in test [3] (setting [8]), in test [4] (setting [9]) and in test [5] (setting [10]) was greater than 50 µM each time.

With `CNC(=O)CC1C(=O)N(Nc2ccccc2C)c2c(C)cccc21` (stereo not drawn) [3b, N-Methyl-2-(7-methyl-2-oxo-1-(o-tolylamino)indolin-3-yl)acetamide], the IC50 in test [1] (setting [6]), in test [2] (setting [7]), in test [3] (setting [8]), in test [4] (setting [9]) and in test [5] (setting [10]) was greater than 50 µM throughout.

Regarding `CCc1ccccc1NN1C(=O)C(CC(N)=O)c2cccc(CC)c21` (stereo not drawn) [4f, 2-(7-Ethyl-1-((2-ethylphenyl)amino)-2-oxoindolin-3-yl)acetamide], the IC50 in test [1] (setting [6]), in test [2] (setting [7]), in test [3] (setting [8]), in test [4] (setting [9]) and in test [5] (setting [10]) was greater than 50 µM each time.

Turning to `CNC(=O)CC1C(=O)N(Nc2cccc(F)c2C)c2c1ccc(F)c2C` (stereo not drawn) [3d, 2-(6-Fluoro-1-((3-fluoro-2-methylphenyl)amino)-7-methyl-2-oxoindolin-3-yl)-N-methylacetamide], the IC50 in test [1] (setting [6]), in test [2] (setting [7]), in test [3] (setting [8]), in test [4] (setting [9]) and in test [5] (setting [10]) was greater than 50 µM in each case.

As to `CCc1ccccc1NN1C(=O)C(CC(=O)NC(C)(C)C)c2cccc(CC)c21` (stereo not drawn) [4e, N-(tert-butyl)-2-(7-ethyl-1-((2-ethylphenyl)amino)-2-oxoindolin-3-yl)acetamide], the 50% inhibitory concentration (IC50) in test [1] (setting [6]) is greater than 50 µM; in test [2] (setting [7]), 36.6 µM; in test [3] (setting [8]) it was greater than 50 µM; in test [4] (setting [9]), greater than 50 µM; in test [5] (setting [10]), 15.3 µM.

Consider `CCc1cccc(NN2C(=O)C(CC(=O)NC)c3ccc(CC)cc32)c1` (stereo not drawn) [3o, 2-(6-Ethyl-1-((3-ethylphenyl)amino)-2-oxoindolin-3-yl)-N-methylacetamide], for which the IC50 in test [1] (setting [6]), in test [2] (setting [7]), in test [3] (setting [8]), in test [4] (setting [9]) and in test [5] (setting [10]) was greater than 50 µM throughout.

For `CNC(=O)CC1C(=O)N(Nc2cccc(C)c2C)c2c1ccc(C)c2C` (stereo not drawn) [3c, 2-(1-((2,3-Dimethylphenyl)amino)-6,7-dimethyl-2-oxoindolin-3-yl)-N-methylacetamide], the 50% inhibitory concentration (IC50) in test [1] (setting [6]) was greater than 50 µM; in test [2] (setting [7]) it was 40.9 µM; in test [3] (setting [8]) it was greater than 50 µM; in test [4] (setting [9]) it was greater than 50 µM; in test [5] (setting [10]) it was 44.6 µM.
